Results on 24 compounds are retold here after US10709709B2, “Substituted carbonucleoside derivatives useful as anticancer agents” (Pfizer Inc., priority 2016, dated 2020).

By IC50 is commonly meant the concentration at which inhibition is half-maximal.

The subject of assay [1] is A549 lung adenocarcinoma cells. Nature of the assay: A549 proliferation assay (Cell Titer Glo). Particulars: 7 days with compound, cell viability by Cell Titer Glo (ATP). The class given is cell-based. In outline: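 A549 cells plated overnight, then treated with nine-point 3.3-fold dilutions (final top 10 μM, 0.2% DMSO) for 7 days at 37 °C, with media and compound refreshed on day 4. Viability measured as ATP by Cell Titer Glo luminescence; IC50 from 4-parameter fit normalized to DMSO control.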

Assay [2] deals with PRMT5/MEP50 protein complex (Homo sapiens (Human), UniProt O14744). Nature of the assay: PRMT5 biochemical assay (3H-SAM methylation of H4(1-21) peptide, filter plate scintillation). The conditions noted are these: 10 nM PRMT5/MEP50 complex, 200 nM H4(1-21) peptide, 1 uM SAM, 25 minute incubation at room temperature. In outline: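 Human PRMT5/MEP50 complex (10 nM) methylating H4(1-21) peptide (200 nM) with 3H/unlabelled SAM (1 uM final) in pH 8.5 Tris buffer, 25 min at room temperature. Stopped with TCA, 3H-peptide captured on filter plates and scintillation-counted. IC50 from 4-parameter fit.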
PRMT5/MEP50 protein complex, sequence (O14744 other isoform, or with tags, fused parts or gaps): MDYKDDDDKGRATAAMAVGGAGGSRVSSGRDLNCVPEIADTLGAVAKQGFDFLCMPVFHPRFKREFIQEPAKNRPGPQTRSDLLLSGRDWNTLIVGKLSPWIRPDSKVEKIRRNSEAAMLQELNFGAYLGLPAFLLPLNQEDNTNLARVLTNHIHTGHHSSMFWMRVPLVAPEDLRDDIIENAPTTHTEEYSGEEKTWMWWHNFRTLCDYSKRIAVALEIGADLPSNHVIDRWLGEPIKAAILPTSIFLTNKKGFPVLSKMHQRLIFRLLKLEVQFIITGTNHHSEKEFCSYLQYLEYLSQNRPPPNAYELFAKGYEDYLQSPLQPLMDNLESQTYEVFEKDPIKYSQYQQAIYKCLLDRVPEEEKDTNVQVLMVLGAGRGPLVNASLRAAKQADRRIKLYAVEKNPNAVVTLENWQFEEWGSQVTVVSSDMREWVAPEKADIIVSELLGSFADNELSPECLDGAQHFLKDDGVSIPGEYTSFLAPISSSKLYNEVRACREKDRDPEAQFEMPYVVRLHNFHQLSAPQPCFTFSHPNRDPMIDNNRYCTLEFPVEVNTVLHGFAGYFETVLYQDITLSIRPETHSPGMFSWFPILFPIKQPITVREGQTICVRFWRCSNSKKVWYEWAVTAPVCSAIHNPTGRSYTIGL
PRMT5/MEP50 protein complex, sequence (Q9BQA1 whole entry partner): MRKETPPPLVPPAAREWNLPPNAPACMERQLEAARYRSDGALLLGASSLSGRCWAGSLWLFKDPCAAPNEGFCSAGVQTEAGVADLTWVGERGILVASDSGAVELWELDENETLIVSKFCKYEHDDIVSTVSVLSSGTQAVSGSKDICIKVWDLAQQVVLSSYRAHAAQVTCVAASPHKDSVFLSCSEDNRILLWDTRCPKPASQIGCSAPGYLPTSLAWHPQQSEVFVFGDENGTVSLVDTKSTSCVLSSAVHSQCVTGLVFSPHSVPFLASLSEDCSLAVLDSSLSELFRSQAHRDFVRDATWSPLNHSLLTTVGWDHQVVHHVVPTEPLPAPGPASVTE

Take `Cc1ncnc2c1ccn2[C@@H]1C[C@H](Oc2cc(C#N)cc3c2CNCCO3)[C@@H](O)[C@H]1O` [Example 202, 6-(((1S,2S,3S,4R)-2,3-dihydroxy-4-(4-methyl-7H-pyrrolo[2,3-d]pyrimidin-7-yl)cyclopentyl)oxy)-2,3,4,5-tetrahydrobenzo[f][1,4]oxazepine-8-carbonitrile]: the 50% inhibitory concentration (IC50) in assay [1] (Homo sapiens, A549, 168 h) was determined as 1760 nM; in assay [2] it was 1 nM.

Regarding `Cc1ncnc2c1ccn2[C@@H]1C[C@H](Oc2cc(F)c(F)c3c2CNCC3)[C@@H](O)[C@H]1O` [Example 92, (1S,2S,3S,5R)-3-((5,6-difluoro-1,2,3,4-tetrahydroisoquinolin-8-yl)oxy)-5-(4-methyl-7H-pyrrolo[2,3-d]pyrimidin-7-yl)cyclopentane-1,2-diol], the IC50 stood at 312 nM in assay [1] (Homo sapiens, A549, 168 h) and 1 nM in assay [2].

Take `Cc1ncnc2c1ccn2[C@@H]1C[C@H](Oc2cccc3c2CN[C@@H](C)CO3)[C@@H](O)[C@H]1O` [Example 207, (1S,2S,3S,5R)-3-(((S)-3-methyl-2,3,4,5-tetrahydrobenzo[f][1,4]oxazepin-6-yl)oxy)-5-(4-methyl-7H-pyrrolo[2,3-d]pyrimidin-7-yl)cyclopentane-1,2-diol]: the IC50 in assay [1] (Homo sapiens, A549, 168 h) amounted to 1480 nM; in assay [2] it was 24 nM.

Take `CCc1cc2c(c(O[C@H]3C[C@@H](n4cc(F)c5c(N)ncnc54)[C@H](O)[C@@H]3O)c1)CNCC2` [Example 106, (1S,2S,3R,5S)-3-(4-amino-5-fluoro-7H-pyrrolo[2,3-d]pyrimidin-7-yl)-5-((6-ethyl-1,2,3,4-tetrahydroisoquinolin-8-yl)oxy)cyclopentane-1,2-diol]: the half-maximal inhibitory concentration (IC50) in assay [1] (Homo sapiens, A549, 168 h) was 3850 nM; in assay [2] it was 2 nM.

As to `Cc1cc2c(c(O[C@H]3C[C@@H](n4cc(F)c5c(N)ncnc54)[C@H](O)[C@@H]3O)c1)CNCC2` [Example 105, (1S,2S,3R,5S)-3-(4-amino-5-fluoro-7H-pyrrolo[2,3-d]pyrimidin-7-yl)-5-((6-methyl-1,2,3,4-tetrahydroisoquinolin-8-yl)oxy)cyclopentane-1,2-diol], the IC50 in assay [1] (Homo sapiens, A549, 168 h) worked out at 383 nM; in assay [2], 1 nM.

Consider `Nc1ncnc2c1c(Cl)cn2[C@@H]1C[C@H](Oc2cc(Cl)cc3c2CNCC3)[C@@H](O)[C@H]1O` [Example 130, (1S,2S,3R,5S)-3-(4-amino-5-chloro-7H-pyrrolo[2,3-d]pyrimidin-7-yl)-5-((6-chloro-1,2,3,4-tetrahydroisoquinolin-8-yl)oxy)cyclopentane-1,2-diol], for which the half-inhibitory concentration (IC50) in assay [1] (Homo sapiens, A549, 168 h) was 983 nM; in assay [2], 1 nM.

Consider `Cc1ncnc2c1ccn2[C@@H]1C[C@H](Oc2ccc(Cl)cc2CN)[C@@H](O)[C@H]1O` [Example 159, (1S,2S,3S,5R)-3-(2-(aminomethyl)-4-chlorophenoxy)-5-(4-methyl-7H-pyrrolo[2,3-d]pyrimidin-7-yl)cyclopentane-1,2-diol], for which the IC50 in assay [1] (Homo sapiens, A549, 168 h) is 5200 nM; in assay [2], 5 nM.

On to `Cc1ncnc2c1ccn2[C@@H]1C[C@H](Oc2cccc3c2C(N)CCC3)[C@@H](O)[C@H]1O` (single isomer, unassigned) [Example 186], for which the concentration for half-maximal inhibition (IC50) in assay [1] (Homo sapiens, A549, 168 h) is 9530 nM; in assay [2], 12 nM.

For the compound `Cc1ncnc2c1ccn2[C@@H]1C[C@H]([C@H](O)c2ccc(F)c(Cl)c2)[C@@H](O)[C@H]1O` [Example 5, (1S,2R,3R,5R)-3-[(S)-(3-chloro-4-fluorophenyl) (hydroxy)methyl]-5-(4-methyl-7H-pyrrolo[2,3-d]pyrimidin-7-yl)cyclopentane-1,2-diol], the concentration for half-maximal inhibition (IC50) in assay [1] (Homo sapiens, 168 h) was 932 nM; in assay [2], 25 nM.

Take `CN1CCc2cccc(O[C@H]3C[C@@H](n4cc(F)c5c(N)ncnc54)[C@H](O)[C@@H]3O)c2C1` [Example 114, (1S,2S,3R,5S)-3-(4-amino-5-fluoro-7H-pyrrolo[2,3-d]pyrimidin-7-yl)-5-((2-methyl-1,2,3,4-tetrahydroisoquinolin-8-yl)oxy)cyclopentane-1,2-diol]: the concentration for half-maximal inhibition (IC50) in assay [1] (Homo sapiens, A549, 168 h) is 3940 nM; in assay [2], 4 nM.

Turning to `Nc1ncnc2c1c(F)cn2[C@@H]1C[C@H]([C@H](O)c2ccc(F)cc2)[C@@H](O)[C@H]1O` [Example 25, (1R,2S,3R,5R)-3-(4-amino-5-fluoro-7H-pyrrolo[2,3-d]pyrimidin-7-yl)-5-[(S)-(4-fluorophenyl)(hydroxy)methyl]cyclopentane-1,2-diol], the IC50 in assay [1] (Homo sapiens, A549, 168 h) is 1670 nM; in assay [2], 56 nM.

On to `Cc1ncnc2c1ccn2C1C[C@H](Oc2cccc3ccncc23)[C@@H](O)[C@H]1O` (stereo partly drawn) [Example 77, (1S,2S,3S,5R)-3-(isoquinolin-8-yloxy)-5-(4-methyl-7H-pyrrolo[2,3-d]pyrimidin-7-yl)cyclopentane-1,2-diol], for which the IC50 in assay [1] (Homo sapiens, A549, 168 h) amounted to 1120 nM; in assay [2] it was 65 nM.

For the compound `Cc1ncnc2c1ccn2[C@@H]1C[C@H](Oc2cc(Cl)c(F)cc2[C@H](C)N)[C@@H](O)[C@H]1O` [Example 139, (1S,2S,3S,5R)-3-(2-((S)-1-aminoethyl)-5-chloro-4-fluorophenoxy)-5-(4-methyl-7H-pyrrolo[2,3-d]pyrimidin-7-yl)cyclopentane-1,2-diol], the IC50 in assay [1] (Homo sapiens, A549, 168 h) turned out to be 637 nM; in assay [2] it was 1 nM.

`Cc1ncc2c(F)cn([C@@H]3C[C@H](Oc4cc(F)c(F)c5c4CNCC5)[C@@H](O)[C@H]3O)c2n1` [Example 178, (1S,2S,3S,5R)-3-((5,6-difluoro-1,2,3,4-tetrahydroisoquinolin-8-yl)oxy)-5-(5-fluoro-2-methyl-7H-pyrrolo[2,3-d]pyrimidin-7-yl)cyclopentane-1,2-diol]: the IC50 in assay [1] (Homo sapiens, A549, 168 h) was found to be 4060 nM; in assay [2] it was 2 nM.

As to `Cc1nc(N)c2c(F)cn([C@@H]3C[C@H](Oc4ccc(F)c5c4CNCC5)[C@@H](O)[C@H]3O)c2n1` [Example 126, (1S,2S,3R,5S)-3-(4-amino-5-fluoro-2-methyl-7H-pyrrolo[2,3-d]pyrimidin-7-yl)-5-((5-fluoro-1,2,3,4-tetrahydroisoquinolin-8-yl)oxy)cyclopentane-1,2-diol], the IC50 in assay [1] (Homo sapiens, A549, 168 h) worked out at 498 nM; in assay [2] it was 1 nM.

As for `Cc1ncnc2c1ccn2[C@@H]1C[C@H](C(F)c2ccc(F)cc2)[C@@H](O)[C@H]1O` (single isomer, unassigned) [Example 22], the concentration for half-maximal inhibition (IC50) in assay [1] (Homo sapiens, A549, 168 h) worked out at 135 nM; in assay [2], 3 nM.

For the compound `COc1nc(O[C@H]2C[C@@H](n3ccc4c(C)ncnc43)[C@H](O)[C@@H]2O)c2c(c1F)CCNC2` [Example 191, (1S,2S,3S,5R)-3-((4-fluoro-3-methoxy-5,6,7,8-tetrahydro-2,7-naphthyridin-1-yl)oxy)-5-(4-methyl-7H-pyrrolo[2,3-d]pyrimidin-7-yl)cyclopentane-1,2-diol], the IC50 in assay [1] (Homo sapiens, A549, 168 h) amounted to 7020 nM; in assay [2] it was 1 nM.

`Cc1ncnc2c1ccn2[C@@H]1C[C@H](Oc2cccc3c2CNC[C@H](C)O3)[C@@H](O)[C@H]1O` [Example 210, (1S,2S,3S,5R)-3-(((S)-2-methyl-2,3,4,5-tetrahydrobenzo[f][1,4]oxazepin-6-yl)oxy)-5-(4-methyl-7H-pyrrolo[2,3-d]pyrimidin-7-yl)cyclopentane-1,2-diol]: the IC50 in assay [1] (Homo sapiens, A549, 168 h) was determined as 1550 nM; in assay [2] it was 1 nM.

Consider `Cc1ncnc2c1ccn2[C@@H]1C[C@H](Oc2cc(C(F)F)c(F)c3c2CNCC3C)[C@@H](O)[C@H]1O` (stereo partly drawn) [Example 212, (1S,2S,3S,5R)-3-((6-(difluoromethyl)-5-fluoro-4-methyl-1,2,3,4-tetrahydroisoquinolin-8-yl)oxy)-5-(4-methyl-7H-pyrrolo[2,3-d]pyrimidin-7-yl)cyclopentane-1,2-diol], for which the values for the IC50 in assay [1] and in assay [2] were 2 nM and 1 nM, respectively.

In the case of `Nc1ncnc2c1c(Cl)cn2[C@@H]1C[C@H](Oc2ccc(F)c3c2CNCC3)[C@@H](O)[C@H]1O` [Example 133, (1S,2S,3R,5S)-3-(4-amino-5-chloro-7H-pyrrolo[2,3-d]pyrimidin-7-yl)-5-((5-fluoro-1,2,3,4-tetrahydroisoquinolin-8-yl)oxy)cyclopentane-1,2-diol], the IC50 in assay [1] (Homo sapiens, A549, 168 h) was 443 nM; in assay [2], 1 nM.

Consider `Nc1ncnc2c1c(F)cn2[C@@H]1C[C@H](Oc2ccc(F)c3c2CNCC3)[C@@H](O)[C@H]1O` [Example 100, (1S,2S,3R,5S)-3-(4-amino-5-fluoro-7H-pyrrolo[2,3-d]pyrimidin-7-yl)-5-((5-fluoro-1,2,3,4-tetrahydroisoquinolin-8-yl)oxy)cyclopentane-1,2-diol], for which the half-inhibitory concentration (IC50) in assay [1] (Homo sapiens, A549, 168 h) was 185 nM; in assay [2] it was 1 nM.

Consider `Cc1ncnc2c1ccn2[C@@H]1C[C@H]([C@H](O)c2ccc(Cl)cc2CN)[C@@H](O)[C@H]1O` [Example 53, (1S,2R,3R,5R)-3-((S)-(2-(aminomethyl)-4-chlorophenyl)(hydroxy)methyl)-5-(4-methyl-7H-pyrrolo[2,3-d]pyrimidin-7-yl)cyclopentane-1,2-diol], for which the IC50 turned out to be 227 nM in assay [1] (Homo sapiens, A549, 168 h) and 6 nM in assay [2].

For `Cc1ncnc2c1ccn2[C@@H]1C[C@H](Oc2cc(F)c(F)cc2CN)[C@@H](O)[C@H]1O` [Example 148, (1S,2S,3S,5R)-3-(2-(aminomethyl)-4,5-difluorophenoxy)-5-(4-methyl-7H-pyrrolo[2,3-d]pyrimidin-7-yl)cyclopentane-1,2-diol], the 50% inhibitory concentration (IC50) in assay [1] (Homo sapiens, A549, 168 h) turned out to be 4880 nM; in assay [2] it was 2 nM.

Turning to `Cc1ncnc2c1ccn2[C@@H]1C[C@H]([C@H](O)c2cccc3c2CNCC3)[C@@H](O)[C@H]1O` [Example 56, (1S,2R,3R,5R)-3-((S)-hydroxy(1,2,3,4-tetrahydroisoquinolin-8-yl)methyl)-5-(4-methyl-7H-pyrrolo[2,3-d]pyrimidin-7-yl)cyclopentane-1,2-diol], the IC50 in assay [1] (Homo sapiens, A549, 168 h) was found to be 378 nM; in assay [2], 2 nM.
